From PubChem BioAssay (NCI)
Several values for one entry are separate records, joined by “and”; a condition that tells them apart may be missing. Equal values may be shown once.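 Briefly, cells in 96-well plates were exposed to five compound concentrations for 48 h, and endpoints were estimated by linear interpolation. Abbreviation: GI50, concentration required for 50% inhibition of growth. TGI denotes the concentration required for complete inhibition of growth.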

Experiments:
Assay in all cases: inhibition of tumour cell growth, NCI panel, 48 h
HCT-116 colon = system: HCT-116 colon
HOP-92 NSCLC = system: HOP-92 NSCLC
NCI-H522 lung = system: NCI-H522 lung
SK-MEL-28 melanoma = system: SK-MEL-28 melanoma
SNB-19 CNS = system: SNB-19 CNS
U251 CNS = system: U251 CNS
UACC-62 melanoma = system: UACC-62 melanoma
UO-31 renal = system: UO-31 renal
SR leukemia = system: SR leukemia
MDA-MB-231 breast = system: MDA-MB-231 breast

SMILES	TGI (HCT-116 colon) [µM]	TGI (HOP-92 NSCLC)	TGI (NCI-H522 lung) [µM]	TGI (SK-MEL-28 melanoma) [µM]	TGI (SNB-19 CNS) [µM]	TGI (U251 CNS) [µM]	TGI (UACC-62 melanoma)	TGI (UO-31 renal)	TGI (SR leukemia) [µM]	GI50 (HCT-116 colon)	GI50 (MDA-MB-231 breast)	TGI (MDA-MB-231 breast) [µM]	GI50 (SK-MEL-28 melanoma)	GI50 (SR leukemia) [nM]	GI50 (U251 CNS)	GI50 (UACC-62 melanoma)	GI50 (UO-31 renal)	GI50 (HOP-92 NSCLC)	GI50 (NCI-H522 lung)	GI50 (SNB-19 CNS)
CC1CC(C2=CC=CCS2)=Nc2ccccc2S1 (configuration not stated)	> 100	> 100 µM	> 100	> 100	> 100	> 100	> 100 µM	> 100 µM	–	–	–	–	–	–	–	–	–	–	–	–
CC(C)/C=C1\CCC(CN2CCCC2)C1=O (configuration not stated)	20.9	36.1 µM	3.71	32.9	> 64.2	21	47.4 µM	32.5 µM	8.09	–	–	–	–	–	–	–	–	–	–	–
CCOC(=O)Nc1cc2nnc(-c3ccccc3)nc2c(N)n1	38.7	85.2 µM	–	> 100	> 100	> 100	> 100 µM	84.7 µM	72.2	–	–	–	–	–	–	–	–	–	–	–
CCSCC1CC(O)(c2ccccc2)C(c2ccccc2)C(c2ccc(Cl)cc2)O1 (configuration not stated)	2.58	–	–	4.19	–	3.32	3.01 µM	2.43 µM	5.99	1.21 µM	1.82 µM	4.41	1.79 µM	2150	1.63 µM	1400 nM	1070 nM	–	–	–
CC(C)(C)NNC(=O)/C(=C/c1ccc([N+](=O)[O-])cc1)NC(=O)c1ccccc1	–	> 100 µM	73.3	> 100	> 100	> 100	> 100 µM	> 100 µM	46.4	–	–	–	–	–	–	–	–	–	–	–
COC(=O)C1=C(c2ccc(OC)c(OC)c2)OC(c2ccc(OC)c(OC)c2)C1 (configuration not stated)	> 100	> 100 µM	–	> 100	–	> 100	> 100 µM	> 100 µM	> 100	–	–	–	–	–	–	–	–	–	–	–
CCOc1ccccc1NC(=O)CC1C(=O)Nc2ccccc2S1=O (configuration not stated)	> 100	> 100 µM	> 100	> 100	> 100	> 100	> 100 µM	> 100 µM	> 100	–	–	–	–	–	–	–	–	–	–	–
COc1cc(/C=C/c2ccncc2)cc(OC)c1OC	> 100	> 100 µM	> 100	> 100	> 100	> 100	> 100 µM	83.1 µM	–	–	–	–	–	–	–	–	–	–	–	–
O=C(O)C/C(=C\c1ccco1)C(=O)O	> 100	–	> 100	> 100	> 100	> 100	> 100 µM	> 100 µM	> 100	–	–	> 100	–	–	–	–	–	–	–	–
CS/C(=N\C(=S)N(C)C)N(c1ccccc1)c1nc(=[N+](C)C)ss1	21.7	51.2 µM	5.36	9.22	> 100	20	19.2 µM	> 100 µM	24.6	–	–	–	–	–	–	–	–	–	–	–
C[C@@H]1COCCN1c1cc(C2([S@](C)(=N)=O)CC2)nc(-c2ccnc3[nH]ccc23)n1	> 87.5	14 µM and 8.77 µM	> 84	> 79.7	> 100	> 100	16.6 µM and > 10 µM	32.1 µM and > 10 µM	–	4.67 µM and 4.53 µM	7.28 µM and 7.53 µM	> 100	10.9 µM and > 10 µM	–	9.81 µM and 5.08 µM	2340 nM and 1760 nM	2950 nM and 2040 nM	1340 nM and 1140 nM	8.61 µM and 4.82 µM	3.96 µM and 6.33 µM
